Here are results for 1 molecule from patent US7235518B2, “Fabric care compositions comprising hueing dye” (The Procter & Gamble Company, priority 2004, dated 2007).

Series [1] can be described thus: Water solubility of brightener. The class given is physicochemical. The source says: Brighteners should have some water solubility for easy incorporation into the fabric conditioning composition. […] Fluorescent whitening agents, generally due to their low water solubility, are difficult to incorporate into liquid fabric conditioning compositions. Often it is advantageous to post-add brighteners to a finished base product. One convenient way to do this is to make a brighteners premix.

Series [2] can be described thus: Chemical stability of brightener in acidic product matrix. Format: physicochemical. Conditions: biodegradable fabric conditioning compositions, pH from about 3 to about 4.

For the molecule `O=S(=O)(O)c1ccccc1C=Cc1ccc(-c2ccc(C=Cc3ccccc3S(=O)(=O)O)cc2)cc1.[Na].[Na]` [Tinopal CBS-X, Disodium 4,4′-bis-(2-sulfostyryl) biphenyl], the figures for the water solubility in series [1] (25 C) and in series [1] (25° C.) were 2.5% and “about 2.5 weight percent”, respectively. In addition, in series [2], the “chemical stability in the acidic product matrix” value is “better than some other brighteners”.
